Experimental data from patent US20040192771A1, “Ether compounds and compositions for cholesterol management and related uses” (priority 2001, published 2004).
Like-named read-outs stand apart in the source and are kept apart here.

Experiments:
[1] = tested on: obese female Zucker rats; assay: Oral daily treatment of obese female Zucker rats for fourteen days; serum lipids and glycemic control indicators; assay type: in vivo; conditions: Rattus norvegicus, percent change from study prebleed; for change in vivo at 100 mg/kg/day: 100 mg/kg/day oral; for change in vivo at 30 mg/kg/day: 30 mg/kg/day oral; for change in vivo at 70 mg/kg/day: 70 mg/kg/day oral
Method: In a number of different experiments, illustrative compounds of the invention are administered daily at a dose of up to 100 mg/kg to chow fed obese female Zucker rats for fourteen days in the morning by oral gavage in 1.5% carboxymethylcellulose/0.2% Tween 20 or 20% ethanol/80% polyethylene glycol (dosing vehicles). Animals are weighed daily. Animals are allowed free access to rodent chow and water throughout the study except on days of blood sampling where food is restricted for six hours prior to blood sampling. Blood glucose is determined after the 6 hour fast in the afternoon without anesthesia from a tail vein. Serum is also prepared from pretreatment blood samples subsequently obtained from the orbital venous plexus (with O2/CO2 anesthesia) and following the fourteenth dose at sacrifice from the heart following O2/CO2 anesthesia. Serums are assayed for lipoprotein cholesterol profiles, triglycerides, total cholesterol, Non HDL cholesterol, HDL cholesterol, the ratio of HDL cholesterol to that of Non HDL cholesterol, insulin, non esterified fatty acids, and beta hydroxy butyric acid. The percent body weight gain and the ratio of liver to body weight is also determined. These are shown as absolute values or as a percent change of the pretreatment values in Table C. [drawing 479] [drawing 480]

[2] = tested on: primary rat hepatocytes; assay: Inhibition of lipid synthesis ([1-14C]-acetate incorporation) in primary cultures of rat hepatocytes; assay type: cell-based; conditions: Hepatocyte, total lipid synthesis, 4 hours incubation
Method: Compounds were tested for inhibition of lipid synthesis in primary cultures of rat hepatocytes. Male Sprague-Dawley rats were anesthetized with intraperitoneal injection of sodium pentobarbital (80 mg/kg). Rat hepatocytes were isolated essentially as described by the method of Seglen (Seglen, P. O. Hepatocyte suspensions and cultures as tools in experimental carcinogenesis. J. Toxicol. Environ. Health 1979, 5, 551-560). Hepatocytes were suspended in Dulbecco's Modified Eagles Medium containing 25 mM D-glucose, 14 mM HEPES, 5 mM L-glutamine, 5 mM leucine, 5 mM alanine, 10 mM lactate, 1 mM pyruvate, 0.2% bovine serum albumin, 17.4 mM non-essential amino acids, 20% fetal bovine serum, 100 nM insulin and 20 μg/mL gentamycin) and plated at a density of 1.5×10^5 cells/cm^2 on collagen-coated 96-well plates. Four hours after plating, media was replaced with the same media without serum. Cells were grown overnight to allow formation of monolayer cultures. Lipid synthesis incubation conditions were initially assessed to ensure the linearity of [1-^14C]-acetate incorporation into hepatocyte lipids for up to 4 hours. Hepatocyte lipid synthesis inhibitory activity was assessed during incubations in the presence of 0.25 μCi [1-^14C]-acetate/well (final radiospecific activity in assay is 1 Ci/mol) and 0, 1, 3, 10, 30, 100 or 300 μM of compounds for 4 hours. At the end of the 4-hour incubation period, medium was discarded and cells were washed twice with ice-cold phosphate buffered saline and stored frozen prior to analysis. To determine total lipid synthesis, 170 μl of MicroScint-E® and 50 μl water was added to each well to extract and partition the lipid soluble products to the upper organic phase containing the scintillant. Lipid radioactivity was assessed by scintillation spectroscopy in a Packard TopCount NXT.

[3] = 168 h, week 1, read-out: Glucose
[4] = 168 h, week 1, read-out: Insulin
[5] = 168 h, week 1, read-out: Non-HDL-C
[6] = 336 h, week 2, read-out: Glucose
[7] = 336 h, week 2, read-out: Insulin
[8] = 336 h, week 2, read-out: Non-HDL-C

Row | Compound | change in vivo at 100 mg/kg/day [1, 3] | change in vivo at 100 mg/kg/day ([1]; 168 h, week 1, read-out: HDL-C) | change in vivo at 100 mg/kg/day [1, 4] | change in vivo at 100 mg/kg/day [1, 5] | change in vivo at 100 mg/kg/day ([1]; 168 h, week 1, read-out: TC) | change in vivo at 100 mg/kg/day ([1]; 168 h, week 1, read-out: TG) | change in vivo at 100 mg/kg/day [1, 6] | change in vivo at 100 mg/kg/day ([1]; 336 h, week 2, read-out: HDL-C) | change in vivo at 100 mg/kg/day [1, 7] | change in vivo at 100 mg/kg/day [1, 8] | change in vivo at 100 mg/kg/day ([1]; 336 h, week 2, read-out: TC) | change in vivo at 100 mg/kg/day ([1]; 336 h, week 2, read-out: TG) | IC50 [2] | change in vivo at 30 mg/kg/day ([1]; 168 h, week 1, read-out: HDL-C) | change in vivo at 30 mg/kg/day [1, 4] | change in vivo at 30 mg/kg/day ([1]; 168 h, week 1, read-out: TC) | change in vivo at 30 mg/kg/day ([1]; 168 h, week 1, read-out: TG) | change in vivo at 30 mg/kg/day [1, 6] | change in vivo at 30 mg/kg/day ([1]; 336 h, week 2, read-out: HDL-C) | change in vivo at 30 mg/kg/day [1, 7] | other results
1 | CC(C)(CO)CCCCCOCCCCCC(C)(C)CO [Compound 131, 7-(7-Hydroxy-6,6-dimethylheptyloxy)-2,2-dimethylheptan-1-ol] | -6% | 292% | 40% | -79% | 85% | -91% | -5% | 289% | -1% | -57% | 106% | -88% | 3.8 µM |  |  |  |  |  |  |  | 
2 | CC(C)(CO)CCCCOCCCCC(C)(C)CO [Compound 128, 6-(6-Hydroxy-5,5-dimethylhexyloxy)-2,2dimethylhexan-1-ol] |  |  |  |  |  |  |  |  |  |  |  |  | 10 µM | 174% | 48% | 131% | -52% | 44% | 349% | 48% | change in vivo at 30 mg/kg/day [1, 3]: 2%; change in vivo at 30 mg/kg/day [1, 5]: -14%; change in vivo at 30 mg/kg/day [1, 8]: 59%; change in vivo at 30 mg/kg/day ([1]; 336 h, week 2, read-out: TC): 224%; change in vivo at 30 mg/kg/day ([1]; 336 h, week 2, read-out: TG): -39%
3 | CC(C)(CO)CCCC1CCCC(CCCC(C)(C)CO)O1 (centres unmarked) [Compound 141, 5-[6-(5-Hydroxy-4,4-dimethylpentyl)-tetrahydropyran-2-yl]-2,2-dimethylpentan-1-ol] | -14% | 75% | -2% | -70% | 28% | -74% | -9% | 127% | 10% | -31% | 70% | -47% | 39 µM |  |  |  |  |  |  |  | 
4 | CC(CO)(CCCOCCCC(C)(CO)c1ccccc1)c1ccccc1 (centres unmarked) [Compound 110, 5-(5-Hydroxy-4-methyl-4-phenylpentyloxy)-2-methyl-2-phenylpentan-1-ol] | 12% | 7% | -2% | -32% | -4% | -27% | 10% | 5% | -6% | -26% | -4% | -18% | 143 µM |  |  |  |  |  |  |  | 
5 | CC(C)(CCCCOCCCCC(C)(C)COC1CCCCO1)COC1CCCCO1 (centres unmarked) [Compound 122, 2-{6-[5,5-Dimethyl-6-(tetrahydropyran-2-yloxy)-hexyloxy]-2,2-dimethylhexyloxy}-tetrahydropyran] | -7% | 43% | -18% | 46% | 42% | -1% | 9% | 79% | -20% | 92% | 79% | 22% | 20 µM |  |  |  |  |  |  |  | 
6 | CC(C)(Cc1cccc(Oc2cccc(CC(C)(C)C(=O)O)c2)c1)C(=O)O [Compound 135, 3-{3-[3-(2-Carboxy-2-methylpropyl)-phenoxy]-phenyl}-2,2-dimethylpropionic acid] |  |  |  |  |  |  |  |  |  |  |  |  | 52 µM |  |  |  |  |  |  |  | change in vivo at 70 mg/kg/day [1, 3]: -13%; change in vivo at 70 mg/kg/day ([1]; 168 h, week 1, read-out: HDL-C): 63%; change in vivo at 70 mg/kg/day [1, 4]: -43%; change in vivo at 70 mg/kg/day [1, 5]: -53%; change in vivo at 70 mg/kg/day ([1]; 168 h, week 1, read-out: TC): 3%; change in vivo at 70 mg/kg/day ([1]; 168 h, week 1, read-out: TG): -45%; change in vivo at 70 mg/kg/day [1, 6]: -16%; change in vivo at 70 mg/kg/day ([1]; 336 h, week 2, read-out: HDL-C): 31%; change in vivo at 70 mg/kg/day [1, 7]: 1%; change in vivo at 70 mg/kg/day [1, 8]: -41%; change in vivo at 70 mg/kg/day ([1]; 336 h, week 2, read-out: TC): -7%; change in vivo at 70 mg/kg/day ([1]; 336 h, week 2, read-out: TG): -52%
7 | CC(CO)(CCCCOCCCCC(C)(CO)c1ccccc1)c1ccccc1 (centres unmarked) [Compound 111, 6-(6-Hydroxy-5-methyl-5-phenylhexyloxy)-2-methyl-2-phenylhexan-1-ol] |  |  |  |  |  |  |  |  |  |  |  |  | 106 µM | -4% | -37% | -17% | -14% | -18% | -28% | -36% | change in vivo at 30 mg/kg/day [1, 5]: -33%; change in vivo at 30 mg/kg/day [1, 8]: -1%; change in vivo at 30 mg/kg/day ([1]; 336 h, week 2, read-out: TC): -20%; change in vivo at 30 mg/kg/day ([1]; 336 h, week 2, read-out: TG): -7%
8 | CC(CO)(CCCCOCCCC(C)(CO)c1ccccc1)c1ccccc1 (centres unmarked) [Compound 127, 6-(5-Hydroxy-4-methyl-4-phenylpentyloxy)-2-methyl-2-phenylhexan-1-ol] |  |  |  |  |  |  |  |  |  |  |  |  |  | -2% | 3% | 3% | 0% | -3% | -20% | 0% | change in vivo at 30 mg/kg/day [1, 3]: 5%; change in vivo at 30 mg/kg/day [1, 8]: 45%; change in vivo at 30 mg/kg/day ([1]; 336 h, week 2, read-out: TC): 2%; change in vivo at 30 mg/kg/day ([1]; 336 h, week 2, read-out: TG): 21%
9 | CC(C)(CO)CCCOCCOCCCC(C)(C)CO [Compound 149, 5-[2-(5-Hydroxy-4,4-dimethylpentyloxy)-ethoxy]-2,2-dimethylpentan-1-ol] |  |  |  |  |  |  |  |  |  |  |  |  |  | 37% | -40% | -7% | -37% | -27% | 17% | -26% | change in vivo at 30 mg/kg/day [1, 3]: -20%; change in vivo at 30 mg/kg/day [1, 5]: -48%; change in vivo at 30 mg/kg/day [1, 8]: -27%; change in vivo at 30 mg/kg/day ([1]; 336 h, week 2, read-out: TC): -7%; change in vivo at 30 mg/kg/day ([1]; 336 h, week 2, read-out: TG): -30%
